From patent publication US9434994B2, “Methods for prediction of clinical outcome to epidermal growth factor receptor inhibitors by non-small cell lung cancer patients” (The Regents of the University of Colorado, a body corporate, priority 2004, dated 2016)
Where two headings read alike, the source gives them in different places.

Test system: NSCLC patients
[1] = FISH −, IHC +, EGFR Mut +, n 12
[2] = FISH −, IHC +, EGFR Mut −, n 39
[3] = FISH −, IHC −, EGFR Mut −, n 37
[4] = FISH+ or EGFR + (EGFR mutation), 46 pts
[5] = FISH+/EGFR+ (EGFR mutation), 17 pts
[6] = FISH−/EGFR− (EGFR mutation), 80 pts
[7] = triple positive: EGFR FISH, EGFR IHC, P-AKT
[8] = triple positive: EGFR FISH, IHC, mutation (12 patients)

From the text: In order to make a more substantial statistical analysis and power, the inventors have analyzed the combined data set, which includes altogether 204 patients with NSCLC.
The multivariable analysis is based on an initial univariable analysis including clinical- and biological markers by using backward stepwise regression methods. All univariately significant covariates were included in the stepwise selection.

COc1cc2ncnc(Nc3ccc(F)c(Cl)c3)c2cc1OCCCN1CCOCC1 [gefitinib]
DCR [1]: 44% | OR (response rate) [1]: 22% | OS (median survival) [1]: 11 (3-11) months | TTP [1]: 4 (2-7) months | 1-yr surv [2]: 49% (33-64) | DCR [2]: 41% | OR (response rate) [2]: 3% | OS (median survival) [2]: 11 (8-18) months | TTP [2]: 3 (2-5) months | 1-yr surv (FISH −, IHC +, P-AKT +, N 35): 43% (26-59) | DCR (FISH −, IHC +, P-AKT +, N 35): 47% | OR (response rate) (FISH −, IHC +, P-AKT +, N 35): 13% | OS (median survival) (FISH −, IHC +, P-AKT +, N 35): 11 (6-15) months | TTP (FISH −, IHC +, P-AKT +, N 35): 4 (2-6) months | 1-yr surv (FISH −, IHC +, P-AKT −, N 23): 47% (27-68) | DCR (FISH −, IHC +, P-AKT −, N 23): 50% | OR (response rate) (FISH −, IHC +, P-AKT −, N 23): 6% | OS (median survival) (FISH −, IHC +, P-AKT −, N 23): 9 (7-9) months | TTP (FISH −, IHC +, P-AKT −, N 23): 4 (2-7) months | 1-yr surv (FISH −, IHC −, EGFR Mut +, n 6): 0% (0-30) | DCR (FISH −, IHC −, EGFR Mut +, n 6): 0% | OR (response rate) (FISH −, IHC −, EGFR Mut +, n 6): 0% | OS (median survival) (FISH −, IHC −, EGFR Mut +, n 6): 3 (1-3) months | TTP (FISH −, IHC −, EGFR Mut +, n 6): 2 (1-2) months | 1-yr surv [3]: 37% (21-52) | DCR [3]: 21% | OR (response rate) [3]: 3% | OS (median survival) [3]: 6 (4-12) months | TTP [3]: 2 (2-3) months | 1-yr surv (FISH −, IHC −, P-AKT +, N 32): 29% (13-44) | DCR (FISH −, IHC −, P-AKT +, N 32): 18% | OR (response rate) (FISH −, IHC −, P-AKT +, N 32): 4% | OS (median survival) (FISH −, IHC −, P-AKT +, N 32): 6 (4-10) months | TTP (FISH −, IHC −, P-AKT +, N 32): 2 (2-3) months | 1-yr surv (FISH −, IHC −, P-AKT −, N 17): 29% (8-51) | DCR (FISH −, IHC −, P-AKT −, N 17): 14% | OR (response rate) (FISH −, IHC −, P-AKT −, N 17): 0% | OS (median survival) (FISH −, IHC −, P-AKT −, N 17): 6 (4-12) months | TTP (FISH −, IHC −, P-AKT −, N 17): 2 (2-5) months | 1-yr (1-year survival) [4]: 45% (30-59) | MS (mo) (median survival) [4]: 10 (5-14) mo | RSP (response rate) [4]: 15% | TTP (mo) (time to progression) [4]: 3 (2-5) mo | 1-yr (1-year survival) [5]: 67% (71-100) | RSP (response rate) [5]: 69% | TTP (mo) (time to progression) [5]: 16 (3-20) mo | 1-yr (1-year survival) [6]: 42% (31-53) | DCR (disease control rate) [6]: 29% | MS (mo) (median survival) [6]: 10 (6-13) mo | RSP (response rate) [6]: 3% | TTP (mo) (time to progression) [6]: 3 (2-3) mo | 1-yr OS (KRAS Mutation+): 49% (33%-66%) | DC (disease control) (KRAS Mutation+): 39% | MS (95% CI) (KRAS Mutation+): 11 (6-23) | OR (overall response) (KRAS Mutation+): 7% | TTP, median (95% CI) (KRAS Mutation+): 3 (2-4) | 1-yr OS (KRAS Mutation-): 50% (40%-60%) | DC (disease control) (KRAS Mutation-): 40% | MS (95% CI) (KRAS Mutation-): 12 (8-15) | TTP, median (95% CI) (KRAS Mutation-): 3 (2-4) | DC (disease control) (P-AKT+): 49% | MS (95% CI) (P-AKT+): 13 (10-16) | TTP, median (95% CI) (P-AKT+): 4 (3-5) | 1-yr survival (P-AKT+ or EGFR IHC+): 43% (32-54) | DCR (P-AKT+ or EGFR IHC+): 34% | MS (P-AKT+ or EGFR IHC+): 8 (6-14) mo | RSP (P-AKT+ or EGFR IHC+): 6% | TTP (P-AKT+ or EGFR IHC+): 3 (2-3) mo | 1-yr survival (P-AKT+/EGFR IHC+): 63% (51-74) | MS (P-AKT+/EGFR IHC+): 16 (12-21) mo | RSP (P-AKT+/EGFR IHC+): 30% | TTP (P-AKT+/EGFR IHC+): 6 (4-10) mo | DC (disease control) (P-AKT-): 33% | MS (95% CI) (P-AKT-): 8 (6-14) | OR (overall response) (P-AKT-): 2% | TTP, median (95% CI) (P-AKT-): 3 (2-5) | DCR (P-AKT-/EGFR IHC-): 21% | MS (P-AKT-/EGFR IHC-): 6 (5-9) mo | TTP (P-AKT-/EGFR IHC-): 2 (2-4) mo | Disease Control Rate (both cohorts, total): 43% | Median Survival (both cohorts, total): 11 (8-14) | Median Time to Progression (both cohorts, total): 3 (3-4) | One-YR Survival (both cohorts, total): 48% (41-55) | Overall Response (both cohorts, total): 15% | HR, survival, multivariable (performance status 2): 3.64 | Disease Control Rate [7]: 80% | response rate [7]: 43% | time to progression [7]: 12 months | Median Survival (triple positive: EGFR FISH, EGFR IHC, P-AKT, not achieved yet): exceeding 20 months | 1-year survival [8]: 100% | Disease Control Rate [8]: 78% | response rate [8]: 78% | time to progression [8]: 20 months | Median Survival (triple positive: EGFR FISH, IHC, mutation, not yet achieved): exceeding 20 months
